Assay results published in paper PMC6675120, “Potent and selective inhibitors for M32 metallocarboxypeptidases identified from high-throughput screening of anti-kinetoplastid chemical boxes” (PLoS Neglected Tropical Diseases, 2019).
Where “and” joins values, the source holds several entries; their conditions need not be identical. Equal values may be shown once. Read-outs that look alike come from different tables or passages of the source.

Columns and labels:
TcMCP-1 = TcMCP-1 (Trypanosoma cruzi, UniProt Q6ZXC0); assay: Continuous fluorogenic (FRET) TcMCP-1 assay with Abz-LKFK(Dnp)-OH, primary and secondary screening; assay type: biochemical; set-up: inhibition: dose or concentration left out as unconfirmed; settings: for EDTA control (RFU/sec) Mean: EDTA final concentration 31,25 mM, inhibition control; for TcMCP-1 Hill Slope: four-parameter Hill fit of dose-response curve; for TcMCP-1 2º/1º ratio: secondary (31,5 µM) / primary (25 µM) inhibition; for TcMCP-1 Primary screening Inhibition (%) / inhibition at 25 µM: single inhibitor concentration 25 µM; for TcMCP-1 Secondary screening Inhibition (%): single inhibitor concentration 31,5 µM; for inhibition: read-out: TcMCP-1 Secondary screening Inhibition (%)
Description: (§1) TcMCP-1 (MEROPS ID: M32.003) and TbMCP-1 were expressed as GST fusion proteins in E. coli BL21 (DE3) Codon Plus and purified as previously described.
(§2) TbMCP-1 and TcMCP-1 activities were assayed fluorometrically with Abz-RFFK(Dnp)-OH and Abz-LKFK(Dnp)-OH substrates, respectively, in 100 mM MOPS pH 7,2 containing 0,01% Triton X-100. Assays were performed in solid black 384-well plates (final reaction volume ~80 μL) and the hydrolysis of the K(Dnp)-OH group was monitored continuously at 30 °C with a Beckman Coulter DTX 880 Multimode Reader (Radnor, Pennsylvania, USA) using standard 320 nm excitation and 420 nm emission filter set.
(§3) In all cases, EDTA (final concentration 31,25 mM) was used as positive inhibition control.
(§4) Then, 40 μL of 100 mM MOPS, 0,01% Triton X-100 pH 7,2 containing TbMCP-1 (2,50 nM) or TcMCP-1 (0,34 nM) were added to each well, plates were homogenized (30 seg, orbital, medium intensity) and each well subjected to a single autofluorescence read (ex/em = 320/420 nm). Plates were incubated in darkness for 15 min at 30 °C and then 40 μL of Abz-RFFK(Dnp)-OH (4 μM) or Abz-LKFK(Dnp)-OH (0,8 μM) in assay buffer were added to each well to start the reaction. After homogenization (30 seg, orbital, medium intensity), the fluorescence of the Abz group (ortho-aminobenzoic acid) (ex/em = 320/420 nm) was acquired kinetically for each well (8 read cycles, one cycle every 300 seconds). Considering our previous experiences, the auto-fluorescent cut-off was arbitrarily set at 2x10^5 RFU to discard highly interfering compounds. All compounds were assayed in singlet (without replicates) due to the limited availability of stocks.
(§5) Raw screening measurements were used to determine the slope (dF/dt) of progression curves by linear regression for control and non-interfering compound wells. In the case of control-dependent hit selection criteria, percent inhibition percentage (%Inh) was calculated for each compound according to the following equation: Inh=100∙[1−(dF/dt^WELL−μ^C−)/(μ^C+−μ^C−)] (1) where dF/dt^WELL represents the slope of each compound well and μ^C+ and μ^C− the average of MCP (no-inhibition) and substrate (no-enzyme) controls, respectively.
(§6) Compounds selected from primary screening were re-tested in a dose-response manner (final concentration ranging from 7,5 to 62,5 μM) using identical assay conditions. To avoid any positional and/or association bias, we randomly defined the row position for each compound. One μL of compounds stock (10 mM in DMSO) and EDTA (31,25 mM) were added to the first well of column 1, followed by addition of 40 μL of 100 mM MOPS, 0,01% Triton X-100 pH 7,2 buffer. After addition of 20 μL of the same buffer to subsequent wells of the plate, 22 serial 2-fold dilutions were made horizontally. The last two positions of every row were used, alternatively, for C^+ and C^− controls to reduce any positional and/or association bias. Then, 20 μL of activity buffer containing TbMCP-1 or TcMCP-1 were added to each well, except for those corresponding to C^−; completed with 20 μL of activity buffer. After homogenization, 15 minutes of incubation at 30°C and autofluorescence measurement, the substrate (in activity buffer) was added to the previous mix. Data collection and processing were performed exactly as described above. Percentage of M32 MCPs residual activity was calculated for each condition according to the following equation: %Res.Act^MCP=100∙[(dF/dt^WELL−μ^C−)/(μ^C+−μ^C−)] (2) where dF/dt^WELL represents the slope of each compound well and μ^C+ and μ^C− the average of MCP (no-inhibition) and substrate (no-enzyme) controls, respectively.

TbMCP-1 = TbMCP-1 (Trypanosoma brucei, UniProt Q386R0); assay: Continuous fluorogenic (FRET) TbMCP-1 assay with Abz-RFFK(Dnp)-OH, primary and secondary screening; assay type: biochemical; settings: for EDTA control (RFU/sec) Mean: EDTA final concentration 31,25 mM, inhibition control; for TbMCP-1 2º/1º ratio: secondary (31,5 µM) / primary (25 µM) inhibition; for TbMCP-1 Secondary screening Inhibition (%) / inhibition: single inhibitor concentration 31,5 µM; for TbMCP-1 Hill Slope: four-parameter Hill fit of dose-response curve; for inhibition at 25 µM: read-out: TbMCP-1 Primary screening Inhibition (%)
Description: as §1, §2, §3, §4, §5
as §6, with “To” for “Compounds selected from primary screening were re-tested in a dose-response manner (final concentration ranging from 7,5 to 62,5 μM) using identical assay conditions. To”

[1] = secondary screening, two-fold dilutions 7,5 pM to 62,5 μM, KM/[S] ~ 1, no replicates
[2] = single inhibitor concentration 25 µM

Chain of TcMCP-1 (Q6ZXC0 entry or part of it): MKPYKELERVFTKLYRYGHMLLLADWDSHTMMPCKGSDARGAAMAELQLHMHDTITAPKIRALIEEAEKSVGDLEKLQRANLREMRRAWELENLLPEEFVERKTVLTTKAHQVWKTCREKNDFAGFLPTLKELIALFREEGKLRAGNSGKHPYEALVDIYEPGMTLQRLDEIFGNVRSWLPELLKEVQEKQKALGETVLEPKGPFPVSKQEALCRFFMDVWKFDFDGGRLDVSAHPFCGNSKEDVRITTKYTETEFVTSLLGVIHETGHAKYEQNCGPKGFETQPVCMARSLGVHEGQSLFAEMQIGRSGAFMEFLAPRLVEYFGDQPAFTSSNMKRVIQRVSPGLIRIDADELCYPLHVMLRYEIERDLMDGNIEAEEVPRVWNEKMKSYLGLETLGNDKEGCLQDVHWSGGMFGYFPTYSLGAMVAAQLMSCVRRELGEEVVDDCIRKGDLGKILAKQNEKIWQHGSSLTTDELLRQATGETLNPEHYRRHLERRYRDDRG
Chain of TbMCP-1 (Q386R0 entry or part of it): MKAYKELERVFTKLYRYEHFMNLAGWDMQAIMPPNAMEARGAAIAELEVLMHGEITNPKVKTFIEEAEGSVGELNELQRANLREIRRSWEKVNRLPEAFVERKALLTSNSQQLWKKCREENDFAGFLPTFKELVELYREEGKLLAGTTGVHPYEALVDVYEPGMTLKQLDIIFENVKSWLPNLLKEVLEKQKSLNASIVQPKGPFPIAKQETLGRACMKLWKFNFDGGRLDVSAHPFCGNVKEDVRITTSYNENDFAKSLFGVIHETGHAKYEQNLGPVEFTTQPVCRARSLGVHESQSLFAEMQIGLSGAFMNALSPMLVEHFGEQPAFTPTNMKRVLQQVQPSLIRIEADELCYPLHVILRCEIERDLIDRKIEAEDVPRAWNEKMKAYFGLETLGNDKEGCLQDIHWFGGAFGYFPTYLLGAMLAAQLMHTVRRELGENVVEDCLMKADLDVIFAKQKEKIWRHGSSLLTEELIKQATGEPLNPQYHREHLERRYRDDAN

O=C(O)CN(CCN(CC(=O)O)CC(=O)O)CC(=O)O [EDTA, reference compound]
EDTA control (RFU/sec) Mean (TcMCP-1; Plate 1): 1,28 RFU/sec
EDTA control (RFU/sec) Mean (TcMCP-1; Plate 2): 2,32 RFU/sec
EDTA control (RFU/sec) Mean (TbMCP-1; Plate 1): 0,13 RFU/sec
EDTA control (RFU/sec) Mean (TbMCP-1; Plate 2): 0,39 RFU/sec

O=C(Nc1nc2cc(Cl)ccc2o1)c1cccc(Cl)c1 [TCMDC-143172]
IC50 (TcMCP-1): 11.2 µM
TcMCP-1 Hill Slope (TcMCP-1): -2,825
TcMCP-1 2º/1º ratio (TcMCP-1): 1,30
IC50 (TcMCP-1; [1]): ~10 µM
TcMCP-1 Primary screening Inhibition (%) (TcMCP-1): 65,01%
TcMCP-1 Secondary screening Inhibition (%) (TcMCP-1): 84,56%
TbMCP-1 2º/1º ratio (TbMCP-1): -0,04
TbMCP-1 Primary screening Inhibition (%) (TbMCP-1; single inhibitor concentration 25 µM, 25 µM): 42,44%
TbMCP-1 Secondary screening Inhibition (%) (TbMCP-1): -1,57%

O=c1[nH]c(C=Cc2cccc(OCCOc3ccccc3)c2)nc(O)c1[N+](=O)[O-] [TCMDC-143209]
IC50 (TcMCP-1): 4180 µM
TcMCP-1 Hill Slope (TcMCP-1): -1,019
inhibition (TcMCP-1): 92.5%
TcMCP-1 2º/1º ratio (TcMCP-1): 1,09
IC50 (TcMCP-1; [1]): ≤ 10 µM
inhibition at 25 µM (TcMCP-1): 85%
IC50 (TbMCP-1): 28.3 µM
TbMCP-1 Hill Slope (TbMCP-1): -1,2405
TbMCP-1 2º/1º ratio (TbMCP-1): 0,86
inhibition at 25 µM (TbMCP-1; [2]): 50%
inhibition (TbMCP-1): 42.9%

CCn1c(-c2nonc2N)nc2c(C(C)O)ncc(OC(CN)c3ccccc3)c21 (stereo not shown) [TCMDC-143323]
inhibition on TcMCP-1 (TcMCP-1): < 30%
TbMCP-1 Hill Slope (TbMCP-1): -0,894
TbMCP-1 2º/1º ratio (TbMCP-1): 1,00
inhibition at 25 µM (TbMCP-1; [2]): 87.2%
inhibition (TbMCP-1): 87%

Cl.NS(=O)(=O)c1ccc(Nc2ncc3cccc(OC4CCNCC4)c3n2)cc1 [TCMDC-143382]
IC50 (TcMCP-1): 20.6 µM
TcMCP-1 Hill Slope (TcMCP-1): -0,7277
TcMCP-1 2º/1º ratio (TcMCP-1): 1,18
TcMCP-1 Primary screening Inhibition (%) (TcMCP-1): 53,63%
TcMCP-1 Secondary screening Inhibition (%) (TcMCP-1): 63,12%
IC50 (TbMCP-1): 22.6 µM
TbMCP-1 Hill Slope (TbMCP-1): -0,7258
TbMCP-1 2º/1º ratio (TbMCP-1): 0,99
TbMCP-1 Primary screening Inhibition (%) (TbMCP-1; [2]): 57,82%
TbMCP-1 Secondary screening Inhibition (%) (TbMCP-1): 57,14%

CS(=O)(=O)c1cccc(CNC(=O)c2cncc(N3CCN(c4ccc(F)cc4)CC3)c2)c1 [TCMDC-143385]
TcMCP-1 Hill Slope (TcMCP-1): -0,9614
inhibition (TcMCP-1): 80.8%
TcMCP-1 2º/1º ratio (TcMCP-1): 1,88
IC50 (TcMCP-1; [1]): ≤ 10 µM and ~10 µM
inhibition at 25 µM (TcMCP-1): 42.9%
inhibition at 25 µM (TbMCP-1): < 40%

O=C(c1cccc(Cl)c1Cl)N1CCn2c1nc(-c1ccncc1)cc2=O [TCMDC-143409]
inhibition on TcMCP-1 (TcMCP-1): < 30%
TbMCP-1 Hill Slope (TbMCP-1): -1,2409
TbMCP-1 2º/1º ratio (TbMCP-1): 1,13
IC50 (TbMCP-1; [1]): 10.4 µM
inhibition at 25 µM (TbMCP-1; [2]): 68.9%
inhibition (TbMCP-1): 78%

Fc1ccccc1N1CC2CCN(c3cccnc3)CC2C1 (stereo not shown) [TCMDC-143422]
IC50 (TcMCP-1): 1.52 µM
TcMCP-1 Hill Slope (TcMCP-1): -1,038
inhibition (TcMCP-1): 93.9%
TcMCP-1 2º/1º ratio (TcMCP-1): 1,19
IC50 (TcMCP-1; [1]): ≤ 10 µM
inhibition at 25 µM (TcMCP-1): 78.8%
TbMCP-1 Hill Slope (TbMCP-1): -1,206
TbMCP-1 2º/1º ratio (TbMCP-1): 0,99
IC50 (TbMCP-1; [1]): 10.5 µM
inhibition at 25 µM (TbMCP-1; [2]): 81.1%
inhibition (TbMCP-1): 80.2%

CCOC(=O)c1cn[nH]c1S(=O)(=O)N1CCC1c1ccccc1 (stereo not shown) [TCMDC-143456]
TcMCP-1 Hill Slope (TcMCP-1): -0,9597
inhibition (TcMCP-1): 97.7%
TcMCP-1 2º/1º ratio (TcMCP-1): 1,10
IC50 (TcMCP-1; [1]): ≤ 10 µM
inhibition at 25 µM (TcMCP-1): 89.1%
IC50 (TbMCP-1): 14.7 µM
TbMCP-1 Hill Slope (TbMCP-1): -1,247
TbMCP-1 2º/1º ratio (TbMCP-1): 1,04
inhibition at 25 µM (TbMCP-1; [2]): 66.2%
inhibition (TbMCP-1): 69%

COc1cc(Nc2nccc(Nc3onc(C)c3C)n2)cc(S(=O)(=O)C2CCOCC2)c1 [TCMDC-143462]
IC50 (TcMCP-1): 15.5 µM
TcMCP-1 Hill Slope (TcMCP-1): -0,9436
TcMCP-1 2º/1º ratio (TcMCP-1): 1,40
TcMCP-1 Primary screening Inhibition (%) (TcMCP-1): 43,06%
TcMCP-1 Secondary screening Inhibition (%) (TcMCP-1): 60,29%
TbMCP-1 2º/1º ratio (TbMCP-1): 0,13
TbMCP-1 Primary screening Inhibition (%) (TbMCP-1; [2]): 47,90%
TbMCP-1 Secondary screening Inhibition (%) (TbMCP-1): 6,29%

COc1ccc(S(=O)(=O)Nc2ccc(CN3CCN(C(=O)c4cccc(C#N)c4)CC3)cc2)cc1.O=C(O)C(F)(F)F [TCMDC-143496]
IC50 (TcMCP-1): 34.9 µM
TcMCP-1 Hill Slope (TcMCP-1): -0,822
TcMCP-1 2º/1º ratio (TcMCP-1): 1,09
TcMCP-1 Primary screening Inhibition (%) (TcMCP-1): 41,52%
TcMCP-1 Secondary screening Inhibition (%) (TcMCP-1): 45,37%

O=C(O)C(F)(F)F.O=C(O)C(F)(F)F.O=C1COC(c2ccccc2)(c2ccccc2)CN1C1CCN(Cc2ccc(-n3ccnc3)cc2)CC1 [TCMDC-143543]
IC50 (TcMCP-1): > 60 µM
TcMCP-1 2º/1º ratio (TcMCP-1): 0,72
TcMCP-1 Primary screening Inhibition (%) (TcMCP-1): 43,40%
TcMCP-1 Secondary screening Inhibition (%) (TcMCP-1): 31,11%

COc1cccc(S(=O)(=O)Nc2ccc3c(c2)CC(N2CCC(NC(=O)C4CC4)CC2)C3)c1 (stereo not shown) [TCMDC-143583]
TcMCP-1 2º/1º ratio (TcMCP-1): -0,15
TcMCP-1 Primary screening Inhibition (%) (TcMCP-1): 77,30%
TcMCP-1 Secondary screening Inhibition (%) (TcMCP-1): -11,25%

CC(C)Oc1ccc(C(=O)Nc2ccc(N3CCOCC3)c(Cl)c2)cc1 [TCMDC-143592]
IC50 (TcMCP-1): 27.9 µM
TcMCP-1 Hill Slope (TcMCP-1): -0,8919
TcMCP-1 2º/1º ratio (TcMCP-1): 1,03
TcMCP-1 Primary screening Inhibition (%) (TcMCP-1): 56,55%
TcMCP-1 Secondary screening Inhibition (%) (TcMCP-1): 58,11%
